Assay results published in patent US6525001B1, “Substituted pyrimidine and pyridine herbicides” (Mid-American Commercialization Corporation, priority 1997, dated 2003).

Key:
Test in all cases: Test B pre-/postemergence
Assay type in all cases: in vivo
Design in all cases: key: 0 is no effect; 10 is complete control
[1] = test system: pigweed (Amaranthus retroflexus)
Method in brief: (§1)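 Response scores run from 0, meaning no effect, to 10, meaning complete control, assigned by eye relative to controls twelve to sixteen days after spraying. Treatment was both preemergence on planted seed and postemergence on plants at the 1- to 4-leaf stage.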

[2] = test system: bedstraw (Galium aparine)
Method in brief: as §1

[3] = test system: blackgrass (Alopecurus myosuroides)
Method in brief: as §1

[4] = test system: broadleaf signalgrass (Brachiaria decumbens)
Method in brief: as §1

[5] = test system: momingglory (Ipomoea hederacea)
Method in brief: as §1

[6] = test system: crabgrass (Digitaria sanguinalis)
Method in brief: as §1

corn (Zea mays) = test system: corn (Zea mays)
Method in brief: as §1

[7] = test system: velvetleaf (Abutilon theophrasti)
Method in brief: as §1

wild oat (Avena fatua) = test system: wild oat (Avena fatua)
Method in brief: as §1

[8] = test system: wheat (Triticum aestivum)
Method in brief: as §1

[9] = test system: purple nutsedge (Cyperus rotundus)
Method in brief: as §1

[10] = test system: sugar beet (Beta vulgaris)
Method in brief: as §1

[11] = test system: giant foxtail (Setaria faberii)
Method in brief: as §1

[12] = test system: cocklebur (Xanthium strumarium)
Method in brief: as §1

[13] = Preemergence, Rate 62 g/ha, scale of 0 to 10

Cc1cnc(-n2cnc(C(F)(F)F)c2)nc1C(=O)c1cccc(OC(F)(F)F)c1 [Compound 63]
Plant response rating, Redroot pigweed [1, 13]: 8
Redroot pigweed plant response rating ([1]; Rate 62 g/ha, Postemergence): 8
Redroot pigweed plant response rating ([1]; Rate 125 g/ha, Postemergence): 9
Plant response rating, Redroot pigweed ([1]; Rate 125 g/ha, Preemergence): 9
Plant response rating, Redroot pigweed ([1]; Rate 250 g/ha, Postemergence): 9
Plant response rating, Redroot pigweed ([1]; Rate 250 g/ha, Preemergence): 10
Plant response rating, Redroot pigweed ([1]; Rate 500 g/ha, Postemergence): 9
Plant response rating, Redroot pigweed ([1]; Rate 500 g/ha, Preemergence): 10
Plant response rating, Bedstraw [2, 13]: 2
Bedstraw plant response rating ([2]; Rate 62 g/ha, Postemergence): 2
Bedstraw plant response rating ([2]; Rate 125 g/ha, Postemergence): 2
Plant response rating, Bedstraw ([2]; Rate 125 g/ha, Preemergence): 4
Plant response rating, Bedstraw ([2]; Rate 250 g/ha, Postemergence): 5
Plant response rating, Bedstraw ([2]; Rate 250 g/ha, Preemergence): 4
Plant response rating, Bedstraw ([2]; Rate 500 g/ha, Postemergence): 8
Plant response rating, Bedstraw ([2]; Rate 500 g/ha, Preemergence): 8
Plant response rating, Blackgrass [3, 13]: 2
Blackgrass plant response rating ([3]; Rate 62 g/ha, Postemergence): 2
Blackgrass plant response rating ([3]; Rate 125 g/ha, Postemergence): 3
Plant response rating, Blackgrass ([3]; Rate 125 g/ha, Preemergence): 3
Plant response rating, Blackgrass ([3]; Rate 250 g/ha, Postemergence): 3
Plant response rating, Blackgrass ([3]; Rate 250 g/ha, Preemergence): 8
Plant response rating, Blackgrass ([3]; Rate 500 g/ha, Postemergence): 6
Plant response rating, Blackgrass ([3]; Rate 500 g/ha, Preemergence): 9
B. signalgrass plant response rating ([4]; Rate 62 g/ha, Postemergence): 4
B. signalgrass plant response rating ([4]; Rate 62 g/ha, Preemergence): 4
B. signalgrass plant response rating ([4]; Rate 125 g/ha, Postemergence): 3
Plant response rating, B. signalgrass ([4]; Rate 125 g/ha, Preemergence): 7
Plant response rating, B. signalgrass ([4]; Rate 250 g/ha, Postemergence): 4
Plant response rating, B. signalgrass ([4]; Rate 250 g/ha, Preemergence): 8
Plant response rating, B. signalgrass ([4]; Rate 500 g/ha, Postemergence): 5
Plant response rating, B. signalgrass ([4]; Rate 500 g/ha, Preemergence): 9
Plant response rating, Morningglory [5, 13]: 2
Morningglory plant response rating ([5]; Rate 62 g/ha, Postemergence): 2
Morningglory plant response rating ([5]; Rate 125 g/ha, Postemergence): 4
Plant response rating, Morningglory ([5]; Rate 125 g/ha, Preemergence): 7
Plant response rating, Morningglory ([5]; Rate 250 g/ha, Postemergence): 10
Plant response rating, Morningglory ([5]; Rate 250 g/ha, Preemergence): 10
Plant response rating, Morningglory ([5]; Rate 500 g/ha, Postemergence): 10
Plant response rating, Morningglory ([5]; Rate 500 g/ha, Preemergence): 10
Plant response rating, Crabgrass [6, 13]: 3
Crabgrass plant response rating ([6]; Rate 62 g/ha, Postemergence): 3
Crabgrass plant response rating ([6]; Rate 125 g/ha, Postemergence): 3
Plant response rating, Crabgrass ([6]; Rate 125 g/ha, Preemergence): 6
Plant response rating, Crabgrass ([6]; Rate 250 g/ha, Postemergence): 4
Plant response rating, Crabgrass ([6]; Rate 250 g/ha, Preemergence): 8
Plant response rating, Crabgrass ([6]; Rate 500 g/ha, Postemergence): 6
Plant response rating, Crabgrass ([6]; Rate 500 g/ha, Preemergence): 9
Plant response rating, Corn (corn (Zea mays); [13]): 0
Corn plant response rating (corn (Zea mays); Rate 62 g/ha, Postemergence): 0
Corn plant response rating (corn (Zea mays); Rate 125 g/ha, Postemergence): 2
Plant response rating, Corn (corn (Zea mays); Rate 125 g/ha, Preemergence): 1
Plant response rating, Corn (corn (Zea mays); Rate 250 g/ha, Postemergence): 2
Plant response rating, Corn (corn (Zea mays); Rate 250 g/ha, Preemergence): 1
Plant response rating, Corn (corn (Zea mays); Rate 500 g/ha, Postemergence): 2
Plant response rating, Corn (corn (Zea mays); Rate 500 g/ha, Preemergence): 2
Plant response rating, Velvetleaf [7, 13]: 2
Velvetleaf plant response rating ([7]; Rate 62 g/ha, Postemergence): 2
Velvetleaf plant response rating ([7]; Rate 125 g/ha, Postemergence): 8
Plant response rating, Velvetleaf ([7]; Rate 125 g/ha, Preemergence): 2
Plant response rating, Velvetleaf ([7]; Rate 250 g/ha, Postemergence): 8
Plant response rating, Velvetleaf ([7]; Rate 250 g/ha, Preemergence): 10
Plant response rating, Velvetleaf ([7]; Rate 500 g/ha, Postemergence): 8
Plant response rating, Velvetleaf ([7]; Rate 500 g/ha, Preemergence): 10
Plant response rating, Wild oats (wild oat (Avena fatua); [13]): 3
Wild oats plant response rating (wild oat (Avena fatua); Rate 62 g/ha, Postemergence): 3
Wild oats plant response rating (wild oat (Avena fatua); Rate 125 g/ha, Postemergence): 2
Plant response rating, Wild oats (wild oat (Avena fatua); Rate 125 g/ha, Preemergence): 3
Plant response rating, Wild oats (wild oat (Avena fatua); Rate 250 g/ha, Postemergence): 2
Plant response rating, Wild oats (wild oat (Avena fatua); Rate 250 g/ha, Preemergence): 5
Plant response rating, Wild oats (wild oat (Avena fatua); Rate 500 g/ha, Postemergence): 2
Plant response rating, Wild oats (wild oat (Avena fatua); Rate 500 g/ha, Preemergence): 8
Plant response rating, Wheat [8, 13]: 2
Wheat plant response rating ([8]; Rate 62 g/ha, Postemergence): 2
Wheat plant response rating ([8]; Rate 125 g/ha, Postemergence): 2
Plant response rating, Wheat ([8]; Rate 125 g/ha, Preemergence): 2
Plant response rating, Wheat ([8]; Rate 250 g/ha, Postemergence): 2
Plant response rating, Wheat ([8]; Rate 250 g/ha, Preemergence): 3
Plant response rating, Wheat ([8]; Rate 500 g/ha, Postemergence): 2
Plant response rating, Wheat ([8]; Rate 500 g/ha, Preemergence): 4
Plant response rating, Nutsedge [9, 13]: 0
Nutsedge plant response rating ([9]; Rate 62 g/ha, Postemergence): 0
Plant response rating, Nutsedge ([9]; Rate 125 g/ha, Preemergence): 0
Plant response rating, Nutsedge ([9]; Rate 250 g/ha, Postemergence): 0
Plant response rating, Nutsedge ([9]; Rate 500 g/ha, Preemergence): 0
Plant response rating, Sugarbeets [10, 13]: 10
Sugarbeets plant response rating ([10]; Rate 62 g/ha, Postemergence): 10
Sugarbeets plant response rating ([10]; Rate 125 g/ha, Postemergence): 9
Plant response rating, Sugarbeets ([10]; Rate 125 g/ha, Preemergence): 10
Plant response rating, Sugarbeets ([10]; Rate 250 g/ha, Postemergence): 9
Plant response rating, Sugarbeets ([10]; Rate 250 g/ha, Preemergence): 10
Plant response rating, Sugarbeets ([10]; Rate 500 g/ha, Postemergence): 9
Plant response rating, Sugarbeets ([10]; Rate 500 g/ha, Preemergence): 10
Plant response rating, Giant foxtail [11, 13]: 2
Giant foxtail plant response rating ([11]; Rate 62 g/ha, Postemergence): 2
Giant foxtail plant response rating ([11]; Rate 125 g/ha, Postemergence): 2
Plant response rating, Giant foxtail ([11]; Rate 125 g/ha, Preemergence): 3
Plant response rating, Giant foxtail ([11]; Rate 250 g/ha, Postemergence): 3
Plant response rating, Giant foxtail ([11]; Rate 250 g/ha, Preemergence): 6
Plant response rating, Giant foxtail ([11]; Rate 500 g/ha, Postemergence): 3
Plant response rating, Giant foxtail ([11]; Rate 500 g/ha, Preemergence): 8
Plant response rating, Cocklebur [12, 13]: 1
Cocklebur plant response rating ([12]; Rate 62 g/ha, Postemergence): 1
Cocklebur plant response rating ([12]; Rate 125 g/ha, Postemergence): 3
Plant response rating, Cocklebur ([12]; Rate 500 g/ha, Postemergence): 8
Plant response rating, Cocklebur ([12]; Rate 500 g/ha, Preemergence): 1
